Results taken from publication PMC8807399, “Synthesis, Characterization, and in vivo Evaluation of a Novel Potent Autotaxin-Inhibitor” (Frontiers in Pharmacology, 2022).
Converted amounts (≈) assume the structure as drawn.

Experiments:
[1] = Glutathione addition screening; assay type: in vitro ADME; conditions: human liver microsomes + NADPH + GSH
Method: All sample handling was performed based on a 96-well plate format using an automated pipetting system. The test compounds, positive controls (diclofenac, troglitazone, nefazodone, 4-[[1-(4-fluorophenyl)-2-methyl-1H-imidazol-4-yl]ethynyl]-2-methylpyridine) and solvent control (DMSO) were incubated with human liver microsomes supplemented with NADPH and reduced GSH. Stable GSH conjugates whose production can be assumed to be the result of chemically reactive metabolites were detected using a quadrupole time of flight mass spectrometer run in untargeted full scan accurate mass MSE mode (Waters Xevo G1 QTOFMSE; Waters GmbH, Eschborn, Germany). This generic GSH adduct detection method and the assay workflow are taking advantage of the specific fragmentation behavior of the peptide moiety upon collision induced dissociation of GSH adducts and so are largely independent of the conjugate (“X”) itself.

[2] = target: T1, human ATX (Homo sapiens, UniProt Q13822); assay: Autotaxin inhibition assay (Amplex-Red); assay type: biochemical; conditions: ATX 3 nM, LPC 18:1 30 μM, read-out: hATX IC50
T1 construct: made in house
Method: Plates were sealed and incubated for 5 min. The final assay concentrations were ATX 3 nM, choline oxidase 2 U/ml, horseradish peroxidase 4 U/ml, LPC 18:1 30 μM, Amplex Red 50 μM, and DMSO 2%.

[3] = In vitro microsomal stability, mouse; assay type: in vitro ADME; conditions: mouse microsomes, 1 µM; value of 10 = low clearance, essentially below detection limit
Method: (§1) Incubations of a test compound at a concentration of 1 µM with microsomes (0.5 mg/ml) from the appropriate species (human, mouse, or rat) plus cofactor NADPH were performed in 96-well plates at 37°C on a TECAN automated liquid handling system (Tecan Group Ltd., Männedorf, Switzerland). After pre-incubation of the test compound with the microsomes for 10 min, the enzymatic reaction was started by the addition of cofactors. Aliquots of the incubations are removed at 1, 3, 6, 9, 15, 25, 35, and 45 min and are then quenched with 1:3 (v/v) acetonitrile containing internal standards. Samples were then cooled and centrifuged before analysis of the supernatant by LC-MS/MS. Logarithmic Peak area ratios (test compound peak area/internal standard peak area) were plotted against incubation time and a linear fit made to the data with emphasis upon the initial rate of compound disappearance. The slope of the fit was then used to calculate the intrinsic clearance: Clint (µL/min/mg protein) = −slope (min-1) * 1,000/[protein concentration (mg/ml)].

[4] = HT-solubility assay; assay type: physicochemical; conditions: aqueous buffer, thermodynamic from solid; phosphate buffer pH 6.5
Method: This assay was performed on a TECAN station starting from 10 mM DMSO stock solutions of the test compounds. Two aliquots of the test compound were dried and dissolved in phosphate buffer at pH 6.5. Sonication supports optimal re-solubilization. The solutions were then filtered and diluted (3 different dilution levels for each compound) followed by quantification of the dissolved material with Rapid-Fire MS. Quantification was performed for each test compound with a 6-point calibration curve prepared with the same DMSO starting solution.

[5] = Lipophilicity (LogD, octanol/buffer); assay type: physicochemical; conditions: 1-octanol / 25 mM phosphate buffer; pH 7.4, octanol/25 mM phosphate buffer
Method: The experiment started with the accurate coating of the hydrophobic layer (0.45 µm PVDF membranes), which was fixed on the bottom of each DIFI©-tube (Weidmann Medical Technology AG, Rapperswil, Switzerland). The coated membranes were then connected to a 96-well plate which has been prefilled with exactly 150 µl of the selected aqueous buffer solution (25 mM phosphate buffer, pH 7.4). The buffer solution contains already the compound of interest with a maximum starting concentration of 85 µM. To expand the measurement range down to logD = −0.5 and up to logD = +4, it is necessary to carry out the procedure at two different octanol/water ratios: One with an excess of octanol for hydrophilic compounds (logD < 1) and one with a low volume of octanol for the lipophilic compounds (logD > 1). Therefore, parts of the DIFI©-tubes were filled with 15 µl 1-octanol and another part with 1 µl 1-octanol. The resulting sandwich guarantees that the membrane was completely dipped in the buffer solution. The plate was then sealed and shaken for 12 h at room temperature (23°C). During this time, the substance is distributed between the layer, the octanol, and the buffer solution. After having reached a distribution equilibrium, the DIFI©-tubes were easily disassembled from the top of the 96-well plate, so that the remaining sample concentration in the aqueous phase could be analyzed by LC/MS.

[6] = In vitro microsomal stability, human; assay type: in vitro ADME; conditions: human microsomes, 1 µM; value of 10 = low clearance, essentially below detection limit
Method: as §1

[7] = In vitro microsomal stability, rat; assay type: in vitro ADME; conditions: rat microsomes, 1 µM; value of 10 = low clearance, essentially below detection limit
Method: as §1

[8] = Single dose PK in rats; assay type: in vivo; conditions: rat
Method: Exposures in animals treated with ATX-inhibitors were determined from K2EDTA treated plasma by LC-MS/MS at different time points. 25 µL of plasma was used for a single concentration determination. Concentration/time profiles were analyzed with MS Excel (Microsoft Corporation, Redmond, WA, United States).
For PK experiments for 7, 13, 14, and 15, respectively, animals were treated either iv or po and exposures were determined at different time points after compound administration. Suitable formulations for 13 were, for example, NMP:Tris buffer pH 8.5 (30%/70%) for iv administration with a nominal drug concentration of 1 mg/ml (dose 2 mg/kg) and a suspension in NMP:gelatine/NaCl (10%/90%) for po administration with a nominal drug concentration of 2.5 mg/ml (dose 10 mg/kg). PK parameters in Table 2 were estimated from the concentration time profiles using Phoenix WinNonlin software (Certara, Princeton, NJ, United States).

| SMILES | GSH adducts [1] | IC50 [2] [nM] | Mic CL m [3] | solubility [4] [µg/mL] | logD at 12 h [5] | Mic CL h [6] | Mic CL r [7] [µL/m/mg prot] | AUC(0-inf) ([8]; plasma, iv bolus, 3 mg/kg) [ng·h/mL] | half-life ([8]; plasma, iv bolus, 3 mg/kg) [min] | clearance ([8]; plasma, iv bolus, 3 mg/kg, read-out: CLp) [mL/min/kg] | Vd ([8]; plasma, iv bolus, 3 mg/kg, read-out: Vdss) [L/kg] | AUC(0-inf) ([8]; plasma, oral gavage, 20 mg/kg) [ng·h/mL] | Cmax ([8]; plasma, oral gavage, 20 mg/kg) [ng/mL] | Tmax ([8]; plasma, oral gavage, 20 mg/kg) [min] | half-life ([8]; plasma, oral gavage, 20 mg/kg) [min] | Oral F ([8]; oral gavage, 20 mg/kg) [%] |
| --- | --- | --- | --- | --- | --- | --- | --- | --- | --- | --- | --- | --- | --- | --- | --- | --- |
| O=C(/C=C/c1ccc(OC(F)(F)F)cc1)N1C[C@@H]2CN(C(=O)c3ccc4[nH]nnc4c3)C[C@H]2C1 [Compound 11, (E)-1-((3aR,6aR)-5-(1H-benzo[d][1,2,3]triazole-5-carbonyl)hexahydropyrrolo[3,4-c]pyrrol-2(1H)-yl)-3-(4-(trifluoromethoxy)phenyl)prop-2-en-1-one] | Neg | 1 | 10/10/na µL/m/mg prot | < 1 | 2.3 | 10/10/na µL/m/mg prot | – | – | – | – | – | – | – | – | – | – |
| O=C(OCc1cc(Cl)cc(Cl)c1)N1CC[C@@H]2CN(C(=O)c3ccc4[nH]c(=O)oc4c3)C[C@H]2C1 (relative stereo) [Compound 2, trans-3,5-Dichlorobenzyl 2-(2-oxo-2,3-dihydrobenzo[d]oxazole-6-carbonyl)hexa-hydro-1H-pyrrolo[3,4-c]pyridine-5(6H)-carboxylate] | formation of GSH adducts was still observed and pos | 3 | 74 µL/m/mg prot | < 1 | 3.7 | 39 µL/m/mg prot | – | – | – | – | – | – | – | – | – | – |
| O=C(OCc1cc(Cl)cc(Cl)c1)N1C[C@@H]2CN(C(=O)c3ccc4[nH]c(=O)oc4c3)C[C@@H]2C1 [Compound 5, (3aR,6aS)-3,5-Dichlorobenzyl 5-(2-oxo-2,3-dihydrobenzo[d]oxazole-6-carbonyl)-hexahydropyrrolo[3,4-c]pyrrole-2(1H)-carboxylate] | pos | 65 | 288 µL/m/mg prot | 19 (≈ 39.9 µM) | 3.3 | 64 µL/m/mg prot | 335 | – | – | – | – | – | – | – | – | – |
| O=C(OCc1cc(Cl)cc(Cl)c1)N1C[C@@H]2CN(C(=O)c3ccc4[nH]nnc4c3)C[C@@H]2C1 [Compound 8, (3aR,6aS)-3,5-dichlorobenzyl 5-(1H-benzo[d][1,2,3]triazole-5-carbonyl)hexahydro-pyrrolo[3,4-c]pyrrole-2(1H)-carboxylate] | pos | 265 | 68 µL/m/mg prot | 34 (≈ 73.9 µM) | 3.1 | 23 µL/m/mg prot | – | – | – | – | – | – | – | – | – | – |
| O=C(OCc1cc(Cl)cc(Cl)c1)N1CC[C@@H]2CN(C(=O)c3ccc4[nH]nnc4c3)C[C@@H]2CC1 [Compound 10, cis-3,5-Dichlorobenzyl 2-(1H-benzo[d][1,2,3]triazole-5-carbonyl)octahydropyrrolo-[3,4-d]azepine-6(7H)-carboxylate] | – | 1 | 727 µL/m/mg prot | 7 (≈ 14.3 µM) | – | 252 µL/m/mg prot | – | – | – | – | – | – | – | – | – | – |
| O=C(OCc1cc(Cl)cc(Cl)c1)N1CCC2(CC1)CN(C(=O)c1ccc3[nH]nnc3c1)C2 [Compound 9, 3,5-Dichlorobenzyl 2-(1H-benzo[d][1,2,3]triazole-5-carbonyl)-2,7-diazaspiro[3.5]-nonane-7-carboxylate] | pos | 67 | 63 µL/m/mg prot | 3 (≈ 6.32 µM) | 3.6 | 30 µL/m/mg prot | 29 | – | – | – | – | – | – | – | – | – |
| O=C(OCc1cc(Cl)cc(Cl)c1)N1C[C@@H]2CN(C(=O)c3ccc4[nH]nnc4c3)C[C@H]2C1 [Compound 7, (3aS,6aS)-5-(1H-Benzotriazole-5-carbonyl)-hexahydro-pyrrolo [3,4-c]pyrrole-2-carboxylic acid 3,5-dichloro-benzyl ester] | pos | 4 | 17 µL/m/mg prot | 9 (≈ 19.6 µM) | 3.1 | 16 µL/m/mg prot | 10 | 2140 | 48 | 23 | 1.3 | 7900 | 2500 | 15 | 96 | 54 |
| O=C(CCN1CCN(C(=O)OCc2cc(Cl)cc(Cl)c2)CC1)c1ccc2[nH]c(=O)oc2c1 [Compound 1, reference compound] | pos | – | 78 µL/m/mg prot | < 1 | 2.7 | 65 µL/m/mg prot | 84 | – | – | – | – | – | – | – | – | – |
| O=C(OCc1cc(Cl)cc(Cl)c1)N1CC[C@@H]2CN(C(=O)c3ccc4[nH]nnc4c3)C[C@H]2C1 (relative stereo) [Compound 6, trans-2-(1H-Benzotriazole-5-carbonyl)-octahydro-pyrrolo[3,4-c]pyridine-5-carboxylic acid 3,5-dichloro-benzyl ester] | pos | 4 | 65 µL/m/mg prot | 9 (≈ 19 µM) | 3.5 | 23 µL/m/mg prot | – | – | – | – | – | – | – | – | – | – |
| O=C(OCc1cc(Cl)cc(Cl)c1)N1CCC2(CC1)CN(C(=O)c1ccc3[nH]c(=O)oc3c1)C2 [Compound 4, 3,5-Dichlorobenzyl 2-(2-oxo-2,3-dihydrobenzo[d]oxazole-6-carbonyl)-2,7-diaza-spiro[3.5]-nonane-7-carboxylate] | pos | 17 | 149 µL/m/mg prot | < 1 | 3.6 | 54 µL/m/mg prot | – | – | – | – | – | – | – | – | – | – |
| O=C(OCc1cc(Cl)cc(Cl)c1)N1CC2(CCN(C(=O)c3ccc4[nH]c(=O)oc4c3)CC2)C1 [Compound 3, trans-3,5-Dichlorobenzyl 7-(2-oxo-2,3-dihydrobenzo[d]oxazole-6-carbonyl)-2,7-diaza-spiro[3.5]nonane-2-carboxylate] | – | 220 | 81 µL/m/mg prot | < 1 | 3.6 | 92 µL/m/mg prot | – | – | – | – | – | – | – | – | – | – |
